Literature values as cited in paper PMC3918212 (Biopolymers, 2013).

Conditions: PBS at 37 °C

Sequence: MATLEKLMKAFESLKSF [htt^NT]
- Aggregation behaviour on incubation: slow, concentration dependent conversion into an α-helix rich, sedimentable oligomer
